What all share (experiment): NCI anticancer screen, dose series, 48 h
For experiment [1], the system named is MOLT-4 leukemia.
In experiment [2] the test system is ACHN renal.
The subject of experiment [3] is SNB-75 CNS.
For experiment [4], the system named is SNB-19 CNS.
In experiment [5] the test system is HCT-116 colon.
The subject of experiment [6] is EKVX NSCLC.
In experiment [7] the test system is CAKI-1 renal.
Experiment [8] has as its system A549 NSCLC.
In experiment [9] the test system is SK-OV-3 ovarian.
In experiment [10] the test system is HS 578T breast.

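Cells were grown in 96-well plates and exposed to each compound for 48 hours at five concentrations; endpoints were interpolated linearly between bracketing concentrations, or set to the highest concentration if not reached. GI50 marks 50% less growth. At the TGI there is no net growth.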

With `N#Cc1ccccc1C#C/C=C\C#Cc1cnccn1`, the GI50 in [1] was above 24.3 µM; in experiment [2], 32.9 µM; in experiment [3], above 73.9 µM; in experiment [4], 30.2 µM; in experiment [5], 12.5 µM; in [6] it was 44.1 µM. The GI50 is 6.95 µM in [7], 29.8 µM in experiment [8], 52.7 µM in experiment [9] and 27.5 µM in experiment [10]. For the same molecule, the TGI in experiment [1] is above 100 µM; in [2] it was 98.7 µM; in [3], above 100 µM; in [4], above 89.4 µM; in [5], above 100 µM; in experiment [6] it was above 100 µM. Moreover, the TGI was above 23.4 µM in experiment [7], above 95 µM in experiment [8], above 100 µM in experiment [9] and above 93.1 µM in experiment [10].
On to `CCOC(=O)C(Cc1ccc(N(CCCl)CCCl)cc1)NC(=O)C(CC(C)C)NC(C)=O` (stereo not given), for which the GI50 is 0.302 µM in [1]; 0.173 µM in experiment [2]; 1.94 µM in experiment [3]; 3.55 µM in experiment [4]; 1.06 µM in [5]; 5.95 µM in experiment [6]. Further, the GI50 is 0.32 µM in experiment [7], 1.73 µM in experiment [8], 1.38 µM in experiment [9] and 2.55 µM in experiment [10]. Moreover, the TGI in experiment [1] was determined as 2.4 µM; in experiment [2], 1.42 µM; in [3], 8.4 µM; in [4], 16.7 µM; in [5], 3.56 µM; in [6], 19.7 µM. Besides, the TGI was found to be 2.32 µM in [7], 25.6 µM in experiment [8], 4.94 µM in experiment [9] and 7.92 µM in [10].
`CN(C)CCCn1c2c(c3ccc([N+](=O)[O-])cc3c1=O)C(=O)c1ccccc1-2`: the GI50 in experiment [1] is 0.696 µM; in [2], 4.54 µM; in [3], 5.24 µM; in experiment [4] it was 19.1 µM; in experiment [5], 6.48 µM; in experiment [6], 84.9 µM. Also, the GI50 is 3.07 µM in experiment [7], 17.5 µM in experiment [8], 28.1 µM in experiment [9] and 41.3 µM in experiment [10]. Moreover, the TGI in experiment [1] was above 100 µM; in experiment [2], 17.8 µM; in experiment [3], 19.3 µM; in experiment [4] it was above 100 µM; in experiment [5], 21.8 µM; in [6] it was above 100 µM. Moreover, the TGI in experiment [7] was 19.7 µM; in [8], 46.1 µM; in [9], above 100 µM; in [10] it was above 100 µM.
For `Cn1c(N)cc(=O)nc1N`, the TGI in experiment [1], in [2], in experiment [3], in experiment [4], in experiment [5] and in experiment [6] was above 100 µM in each case. For the same molecule, the TGI in experiment [7], in experiment [8], in experiment [9] and in experiment [10] was above 100 µM each time.
As to `CC[N+]1(C)CCC(O)(/C=C/c2ccccc2)C(C(=O)/C=C/c2ccccc2)C1` (stereo not given), the TGI in [1] was 7.11 µM; in [2] it was 25.4 µM; in experiment [3], 34.7 µM; in experiment [4] it was 29.7 µM; in experiment [5], 38 µM; in experiment [6], 51.6 µM. In addition, the TGI was 3.42 µM in experiment [7], 45.7 µM in experiment [8], 32.9 µM in experiment [9] and above 100 µM in [10].
As for `Cn1cnc2nc(Cl)nc(Cl)c21`, the GI50 is 5.26 µM in experiment [1]; 1.44 µM in experiment [2]; 2.48 µM in [3]; 5.79 µM in experiment [4]; 0.323 µM in [5]; 13.6 µM in experiment [6]. Besides, the GI50 was 1.08 µM in [7], 3.68 µM in experiment [8], 4.32 µM in experiment [9] and 2.28 µM in experiment [10]. Besides, the TGI was determined as 36.2 µM in experiment [1]; 18.5 µM in [2]; 13.4 µM in experiment [3]; 57.8 µM in [4]; 13.3 µM in experiment [5]; 34.8 µM in [6]. The TGI in experiment [7] was 3.26 µM; in experiment [8] it was above 100 µM; in experiment [9] it was above 100 µM; in [10] it was 7.53 µM.
As for `COC(=O)[C@@H](C)C[C@H](Cc1ccccc1)NC(=O)c1cccc([C@@H](C[C@H](C(C)C)N(C)C(=O)[C@@H](NC(=O)[C@H]2CCCCN2C)C(C)C)OC(C)=O)n1`, the GI50 is 0.00815 µM in experiment [1]; below 0.00167 µM in [2]; below 0.00167 µM in experiment [3]; below 0.00167 µM in experiment [4]; below 0.00167 µM in experiment [5]; 0.00497 µM in [6]. For the same molecule, the GI50 is 0.00173 µM in experiment [7], 0.00591 µM in experiment [8], 0.00235 µM in experiment [9] and 0.00342 µM in experiment [10]. For the same molecule, the TGI in experiment [1] was above 16.7 µM; in [2] it was above 16.7 µM; in experiment [3], above 16.7 µM; in [4], above 16.7 µM; in [5] it was above 6.68 µM; in experiment [6] it was above 16.7 µM. In addition, the TGI in [7] is above 16.7 µM; in experiment [8], above 16.7 µM; in experiment [9], above 16.7 µM; in experiment [10], above 11.8 µM.
Consider `Cc1ccc(SCN2CCCCC2)cc1` (tested in a mixture with another compound), for which the TGI was 16.2 µM in [1]; 28.7 µM in [2]; 22.5 µM in experiment [3]; 49.9 µM in [4]; 23.4 µM in [5]; 39.2 µM in experiment [6]. Further, the TGI in [7] stood at 26.3 µM; in experiment [8], 72.8 µM; in experiment [9], 29.7 µM; in experiment [10], 37.1 µM.
`CC(C)(O)C1CC(=O)C(C)(C2C(O)CC3(C)C4CC=C5C(CCC(O)C5(C)C)C4(C)C(=O)CC23C)O1` (stereo not given): the TGI in experiment [1], in experiment [2], in experiment [3], in [4], in [5] and in [6] was above 100 µM in each case. In addition, the TGI in experiment [7], in experiment [8], in experiment [9] and in experiment [10] was above 100 µM throughout.

Source of the values: PubChem BioAssay (NCI).
